Experimental data reported in the Deep4Chem optical property database.
Blank lines part the entries; values can stand above or below the molecule they belong to.

Experiment: solvent given as SMILES

absorption maximum (in CC#N): 337 nm | absorption maximum (in ClCCl): 350 nm
SMILES: O=c1c2cc(F)ccc2nc2n1[B-](F)(F)[n+]1ccccc1-2

absorption maximum (in ClC(Cl)Cl): 622 nm
SMILES: F[B-]1(F)n2c(ccc2-c2cccs2)C(c2ccc(Br)cc2)=C2C=CC(c3cccs3)=[N+]21

absorption maximum (in C1CCOC1): 328 nm
SMILES: COc1ccc(-n2c(-c3ccc(-c4cncc5ccccc45)cc3)nc(-c3ccccc3)c2-c2ccccc2)cc1

absorption maximum (in ClCCl): 350 nm
SMILES: CC(C)(C)C1CCC(=CS/C=C/c2ccc(-c3ccc(/C=C/SC=C4CCC(C(C)(C)C)CC4)cc3)cc2)CC1 (configuration not stated)

absorption maximum (in C1CCCCC1): 413 nm | absorption maximum (in C1CCOC1): 413 nm | absorption maximum (in CC#N): 410 nm | absorption maximum (in ClC(Cl)Cl): 413 nm | absorption maximum (in c1ccccc1): 415 nm
SMILES: Cc1cc(C)c(B(c2c(C)cc(C)cc2C)c2cc3ccc4ccccc4c3c3c2ccc2ccccc23)c(C)c1

absorption maximum (in CC#N): 383 nm
SMILES: Cc1ccc(-c2sc(/C(C#N)=C/c3ccc(C#N)cc3)nc2-c2ccc(Cl)cc2)cc1

absorption maximum (in ClCCl): 372 nm
SMILES: CC(=O)c1c(N[C@@H](CS)C(=O)O)c2ccc(N(C)C)cc2oc1=O

absorption maximum (in ClCCl): 410 nm
SMILES: O=C(O)C1=C(C(=O)O)C2=C[C@H]3c4ccccc4[C@]2(S1)c1ccccc13

absorption maximum (in ClCCl): 334 nm
SMILES: COc1ccc2c(c1)-c1cc3c(cc1[Si]2(c1ccccc1)c1ccccc1)-c1ccccc1[Si]3(c1ccccc1)c1ccccc1

absorption maximum (in C1CCOC1): 455 nm | absorption maximum (in C1COCCO1): 452 nm | absorption maximum (in CN(C)C=O): 471 nm | absorption maximum (in CS(C)=O): 477 nm | absorption maximum (in ClCCl): 461 nm
SMILES: CN(C)c1ccc2cc(C(/C=C/c3cn(C)c4ccccc34)=C(C#N)C#N)c(=O)oc2c1

absorption maximum (in CO): 768 nm
SMILES: CC1(C)C(/C=C/C2=C(Oc3ccc(CCN=C=S)cc3F)C(=C/C=C3/N(CCCS(=O)(=O)[O-])c4ccccc4C3(C)C)/CCC2)=[N+](CCCS(=O)(=O)[O-])c2ccccc21

SMILES: COc1ccc(-c2csc(/C(C#N)=N\Nc3ccc(C#N)cc3)n2)cc1
absorption maximum (in CC#N): 401 nm | absorption maximum (in CCO): 403 nm | absorption maximum (in CN(C)C=O): 481 nm | absorption maximum (in Cc1ccccc1): 405 nm | absorption maximum (in ClCCl): 404 nm

absorption maximum (in ClCCl): 340 nm
SMILES: CCCCCCn1c2c(c3cc(-c4ccc5ccc6cccc7ccc4c5c67)ccc31)-c1c(c3cc(-c4ccc5ccc6cccc7ccc4c5c67)ccc3n1CCCCCC)-c1c(c3cc(-c4ccc5ccc6cccc7ccc4c5c67)ccc3n1CCCCCC)-c1c-2c2cc(-c3ccc4ccc5cccc6ccc3c4c56)ccc2n1CCCCCC

SMILES: O=S(=O)(c1ccc(N2c3ccccc3[Si](c3ccccc3)(c3ccccc3)c3ccccc32)cc1)c1ccc(N2c3ccccc3[Si](c3ccccc3)(c3ccccc3)c3ccccc32)cc1
absorption maximum (in Cc1ccccc1): 328 nm

absorption maximum (in ClC(Cl)Cl): 340 nm
SMILES: N#Cc1ccc(C#Cc2ccc(C#Cc3ccccc3C#N)cc2C#N)cc1

SMILES: CCC1=C(C)C2=Cc3c4ccccc4c4n3[B-](c3ccncc3)(Oc3ccccc3-4)[N+]2=C1C=Cc1ccc(OC)cc1 (configuration not stated)
absorption maximum (in CC#N): 690 nm | absorption maximum (in CCCCCC): 698 nm | absorption maximum (in Cc1ccccc1): 703 nm | absorption maximum (in ClCCl): 699 nm

absorption maximum (in C1COCCO1): 463 nm | absorption maximum (in CC(C)O): 485 nm | absorption maximum (in CCCCO): 490 nm | absorption maximum (in CCCO): 487 nm | absorption maximum (in CCO): 484 nm | absorption maximum (in CO): 479 nm | absorption maximum (in CS(C)=O): 476 nm | absorption maximum (in ClC(Cl)Cl): 496 nm | absorption maximum (in ClCCl): 513 nm | absorption maximum (in c1ccccc1): 477 nm
SMILES: CCC[n+]1ccc(/C=C/c2ccc(N(C)C)cc2)cc1

SMILES: CN(C)c1ccc(C#Cc2ccc3ccc4ccc(C#Cc5ccc(N(C)C)cc5)c5ccc2c3c45)cc1
absorption maximum (in C1COCCO1): 429 nm | absorption maximum (in CC(C)=O): 431 nm | absorption maximum (in CCCCCC): 421 nm | absorption maximum (in CCCCCCO): 429 nm | absorption maximum (in CCO): 426 nm | absorption maximum (in CCOC(C)=O): 428 nm | absorption maximum (in CO): 427 nm | absorption maximum (in Cc1ccccc1): 429 nm | absorption maximum (in ClCCl): 429 nm

SMILES: Cc1cc(C)c(C2=C3C=c4c(c5ccccc5c5ccccc45)=[N+]3[B-](F)(F)n3c2cc2c4ccccc4c4ccccc4c23)c(C)c1
absorption maximum (in C1CCCCC1): 674 nm | absorption maximum (in C1CCOC1): 673 nm | absorption maximum (in CC#N): 666 nm | absorption maximum (in Cc1ccccc1): 680 nm | absorption maximum (in ClCCl): 673 nm

SMILES: c1ccc2c(c1)c1ccccc1n2-c1ccc2cc(-c3ccc(-c4ccc(-c5cc6ccc(-n7c8ccccc8c8ccccc87)cc6o5)cc4)cc3)oc2c1
absorption maximum (in Cc1ccccc1): 369 nm | absorption maximum (in c1ccc2c(c1)c1ccccc1n2-c1ccc(-c2ccc(-n3c4ccccc4c4ccccc43)cc2)cc1): 380 nm

absorption maximum (in CC#N): 565 nm | absorption maximum (in CN(C)C=O): 571 nm | absorption maximum (in ClCCl): 570 nm
SMILES: CCN(CC)c1ccc(/C=N/C(C#N)=C(C#N)/N=C/c2ccc(N(CC)CC)cc2O)c(O)c1

SMILES: CC(C)(C)c1ccc2c3c(c4ccc(C(C)(C)C)cc4c2c1)=[N+]1C(=C(c2ccccc2)c2cc4c5ccc(C(C)(C)C)cc5c5cc(C(C)(C)C)ccc5c4n2[B-]1(F)F)C=3
absorption maximum (in C1CCCCC1): 693 nm | absorption maximum (in C1CCOC1): 689 nm | absorption maximum (in CC#N): 683 nm | absorption maximum (in Cc1ccccc1): 694 nm | absorption maximum (in ClCCl): 691 nm

absorption maximum (in ClC(Cl)Cl): 401.5 nm
SMILES: Cc1cccc(C2=Cc3c4ccccc4cc[n+]3[B-](F)(F)O2)c1

absorption maximum (in ClC(Cl)Cl): 398 nm
SMILES: CCc1ccc(-n2c3ccccc3c3cc4c(cc32)c2ccccc2n4-c2ccc(CC)s2)s1

absorption maximum (in CS(C)=O): 440 nm | absorption maximum (in O): 485 nm | absorption maximum (in OCC(O)CO): 500 nm
SMILES: C[n+]1ccnc(/C=C/c2ccc(N(c3ccccc3)c3ccc(/C=C/c4c[n+](C)ccn4)cc3)cc2)c1

absorption maximum (in CO): 307 nm
SMILES: COc1ccccc1-c1nc(-c2ccccc2)c(-c2ccccc2)[nH]1

absorption maximum (in C1COCCO1): 250 nm
SMILES: c1ccc(-c2cc(-c3ccccc3)cc(-c3ccccc3)c2)cc1

absorption maximum (in C1CCCCC1): 345 nm | absorption maximum (in CO): 345 nm
SMILES: Cc1ccc(/C=C/c2nc3ccccc3s2)cc1

absorption maximum (in ClC(Cl)Cl): 503 nm
SMILES: Cc1cccc(C)c1-c1cc2c(C)c3c4cc5nc6cc7c(cc6nc5cc4c3c(C)c2cc1-c1c(C)cccc1C)c1c(C)c2cc(-c3c(C)cccc3C)c(-c3c(C)cccc3C)cc2c(C)c71

absorption maximum (in ClCCl): 366 nm
SMILES: CCCCn1c(-c2ccc(-c3nnc(-c4ccc(-c5nc6c7ccccc7c7ccccc7c6n5CCCC)cc4)o3)cc2)nc2c3ccccc3c3ccccc3c21

SMILES: CCN(CC)c1ccc2cc(/C=C/C(=O)/C=C(O)/C=C/c3cc4ccc(N(CC)CC)cc4oc3=O)c(=O)oc2c1
absorption maximum (in C1CCOC1): 518 nm | absorption maximum (in C1COCCO1): 514 nm | absorption maximum (in CC#N): 521 nm | absorption maximum (in CC(C)=O): 519 nm | absorption maximum (in CCOC(C)=O): 514 nm | absorption maximum (in CN(C)C=O): 527 nm | absorption maximum (in CS(C)=O): 540 nm | absorption maximum (in Cc1ccccc1): 518 nm | absorption maximum (in ClC(Cl)Cl): 520 nm | absorption maximum (in ClCCl): 523 nm

absorption maximum (in C1CCCCC1): 335 nm | absorption maximum (in C1COCCO1): 336 nm | absorption maximum (in CC#N): 334 nm | absorption maximum (in CCO): 336 nm | absorption maximum (in CS(C)=O): 338 nm | absorption maximum (in ClC(Cl)Cl): 338 nm | absorption maximum (in ClCCl): 338 nm
SMILES: COc1ccc(C#Cc2ccc(C#Cc3ccc(P(=O)(c4ccc(C#Cc5ccc(C#Cc6ccc(OC)cc6)cc5)cc4)c4ccc(C#Cc5ccc(C#Cc6ccc(OC)cc6)cc5)cc4)cc3)cc2)cc1

absorption maximum (in CC#N): 566 nm | absorption maximum (in CCCCCC): 573 nm | absorption maximum (in CCOC(C)=O): 570 nm | absorption maximum (in CO): 561 nm | absorption maximum (in ClCCl): 572 nm
SMILES: F[B-]1(F)n2c(ccc2N2CCOCC2)C(c2ccccc2)=C2C=CC(N3CCOCC3)=[N+]21

SMILES: CN(C)CCN(Cc1c2ccccc2c(CN(CCN(C)C)c2ccc([N+](=O)[O-])cc2[N+](=O)[O-])c2ccccc12)c1ccc([N+](=O)[O-])cc1[N+](=O)[O-]
absorption maximum (in C1CCCCC1): 340 nm | absorption maximum (in C1CCOC1): 351 nm | absorption maximum (in CC#N): 347 nm | absorption maximum (in CC(C)=O): 352 nm | absorption maximum (in CCO): 341 nm | absorption maximum (in CN(C)C=O): 340 nm | absorption maximum (in CO): 341 nm | absorption maximum (in ClC(Cl)Cl): 342 nm

absorption maximum (in ClCCl): 420 nm
SMILES: C(=C\c1cnccn1)/c1ccc(N(c2ccccc2)c2ccc(/C=C/c3cnccn3)cc2)cc1

SMILES: O=C(c1ccc(-n2c3ccc(-c4ccccc4)cc3c3cc(-c4ccccc4)ccc32)cc1)c1ccc(-n2c3ccc(-c4ccccc4)cc3c3cc(-c4ccccc4)ccc32)cc1
absorption maximum (in Cc1ccccc1): 370 nm

SMILES: CCCN1/C(=C\c2c(-c3ccc(N(C)C)cc3)c(=O)c2=O)C=Cc2ccccc21
absorption maximum (in C1CCCCC1): 358 nm | absorption maximum (in Cc1ccccc1): 362 nm | absorption maximum (in ClCCl): 509 nm

absorption maximum (in ClCCl): 365 nm
SMILES: CC(C)c1cccc(C(C)C)c1N1C(=O)c2cccc3c(Oc4ccc(C(C)(C)c5ccccc5)cc4)ccc(c23)C1=O

absorption maximum (in ClCCl): 585 nm
SMILES: CCCCN1C(=O)C2=C(c3ccc(-c4ccccc4)cc3)[N-]C(=O)C2=C1c1ccc(-c2ccccc2)cc1

absorption maximum (in ClC(Cl)Cl): 534 nm
SMILES: CCCCN1C(=O)c2cc(Br)c3c4c(Br)c(Br)c5c6c(cc(Br)c(c7c(Br)c(Br)c(c2c37)C1=O)c64)C(=O)N(CCCC)C5=O

absorption maximum (in CO): 574 nm | absorption maximum (in ClC(Cl)Cl): 617 nm
SMILES: Cc1nc2c(ccc3c2sc(/C=C/C=C/c2ccc(N(C)C)cc2)[n+]3C)s1

SMILES: N#Cc1ccc2c(c1)C1(c3cc(C#N)ccc3-2)c2ccccc2N(c2ccccc2)c2ccccc21
absorption maximum (in Cc1ccccc1): 330.33 nm

absorption maximum (in CO): 643 nm | absorption maximum (in ClC(Cl)Cl): 657 nm | absorption maximum (in ClCCl): 658 nm
SMILES: CC[n+]1c(C=C2C(=O)C(C=C3N(C)c4ccccc4C3(C)C)=C2[O-])[se]c2ccccc21

SMILES: COC(=O)c1ccc2c3ccc(C(=O)OC)c4c(C(=O)OC)ccc(c5ccc(C(=O)OC)c1c25)c43
absorption maximum (in C1COCCO1): 470 nm | absorption maximum (in CC#N): 465 nm | absorption maximum (in CC(C)=O): 465 nm | absorption maximum (in CC(C)O): 476 nm | absorption maximum (in CCCCO): 476 nm | absorption maximum (in CN(C)C=O): 468 nm | absorption maximum (in CO): 465 nm | absorption maximum (in ClC(Cl)Cl): 469 nm

absorption maximum (in ClC(Cl)Cl): 423 nm
SMILES: CC(C)(C)n1c(=O)c2cc3ccc4cccc5ccc(c2c1=O)c3c45

absorption maximum (in ClC(Cl)Cl): 436.68 nm
SMILES: CCCCCCn1c2cc(/C=C(\C#N)c3cccs3)ccc2c2ccc(/C=C(\C#N)c3cccs3)cc21

absorption maximum (in CO): 398 nm
SMILES: c1ccc(N(c2ccccc2)c2ccc(-c3cnc(-c4ccc(N(c5ccccc5)c5ccccc5)cc4)s3)cc2)cc1
